# Test results published in US20110152340A1, “Methods for Identifying Subjects With an Increased Likelihood of Responding to DPP-IV Inhibitors” (BRISTOL-MYERS SQUIBB COMPANY, priority 2008, published 2011).
# Assays:
# Format in all cases: in vivo, human
# [1] = Saxagliptin clinical trials: AUC glucose response by GRINL1A genotype
# Experimental: (§1) SNPs from the genome-wide SNP panel were tested for association with response to DPP-IV inhibitors by two analytical methodologies. In one method, SNPs were identified with significant differences in mean HBA1C response among individuals with different genotypes on treatment, taking into account covariates such as demographic differences with an analysis of covariance (ANCOVA) statistical model. SNPs with consistent in their effect on HBA1C in both trials were considered for further evaluation. In a second method, SNPs were examined for association with response cluster. SNPs consistently associated with response cluster in both trials were further evaluated for influence on fasting glycosylated hemoglobin or glucose levels using analysis of covariance.
# (§2) Sample: Subjects in BMS clinical trials, (Trial A and Trial B) receiving DPP-IV inhibitor (saxigliptin) therapy. All subjects have diabetes and the study group was mixed with respect to age, race and duration of diabetes. Measures: Single nucleotide polymorphisms (SNPs) in a genome-wide panel were genotyped on all subjects essentially as described in Example 1. […] The SNPs that were genotyped likely represent a sample of the polymorphic variation in each gene and are not exhaustive with regard to coverage of the total genetic variation that may be present in each gene. […] Statistical Analyses: Initial analysis to determine SNP association with cluster membership was performed using the genotypic test (2-degrees of freedom) implemented in the program PLINK (Purcell et al., 2007 Amer. Journ. Hum Genet. 81: 559-75. PLINK: a tool set for whole-genome association and population-based linkage analyses). […] Follow-up analysis was performed employing a statistical package, SPSS v.14 (SPSS Inc. Chicago, Ill.). […] SNPs that were associated with differential genotype response were identified by a significant difference in HBA1C response (P<=0.05) in two independent trials. Analysis was performed employing a statistical package, SAS v. […] Differences in means between clusters for HbA1c were evaluated using Kruskal-Wallis test.
# [2] = Saxagliptin clinical trials: fasting glucose response by GRINL1A genotype
# Experimental: as §1, §2
# [3] = Saxagliptin clinical trials (Trial A and Trial B): HbA1c response by SNP genotype
# Experimental: The association between the SNPs and the response to saxagliptin was evaluated in two ways. SNPs from the genome-wide SNP panel were tested for association with response to DPP-IV inhibitors by two analytical methodologies. In one method, SNPs were identified with significant differences in mean HBA1C response among individuals with different genotypes on treatment, taking into account covariates such as demographic differences with an analysis of covariance (ANCOVA) statistical model. SNPs with consistent in their effect on HBA1C in both trials were considered for further evaluation. In a second method, SNPs were examined for association with response cluster. SNPs consistently associated with response cluster in both trials were further evaluated for influence on fasting glycosylated hemoglobin or glucose levels using analysis of covariance. Sample: Subjects in BMS clinical trials, (Trial A and Trial B) receiving DPP-IV inhibitor ([…]) therapy. All subjects have diabetes and the study group was mixed with respect to age, race and duration of diabetes. Measures: Single nucleotide polymorphisms (SNPs) in a genome-wide panel were genotyped on all subjects essentially as described in Example 1. […] The SNPs that were genotyped likely represent a sample of the polymorphic variation in each gene and are not exhaustive with regard to coverage of the total genetic variation that may be present in each gene. The SNP for which a statistical association to DPP-IV inhibitor-dependent metabolic abnormalities was confirmed is provided in Table III. Statistical Analyses: Initial analysis to determine SNP association with cluster membership was performed using the genotypic test (2-degrees of freedom) implemented in the program PLINK (Purcell et al., 2007 Amer. Journ. Hum […]: a tool set for whole-genome association and population-based linkage analyses). […] Follow-up analysis was performed employing a statistical package, SPSS v.14 (SPSS Inc. Chicago, Ill.). Some SNP associations were also discovered or confirmed using an ANCOVA modeling approach as described below. SNPs that were associated with differential genotype response were identified by a significant difference in HBA1C response (P<=0.05) in two independent trials. Analysis was performed employing a statistical package, SAS v. 8.2 (SAS Institute Inc., Cary, N.C.). […] Baseline glycosylated hemoglobin (HbA1c) and change in HbA1c after twelve weeks (study A) or twenty-four weeks (study B) of DPP-IV inhibitor therapy for each individual were used in this analysis. […] This process was iteratively repeated until all individuals were clustered into groups, either non-responders (poor response to saxagliptin therapy) or super responders (response to saxagliptin therapy). The two-step clustering routine implemented in SPSS version 12 (Chicago, Ill., US) was used. Differences in means between clusters for HbA1c were evaluated using Kruskal-Wallis test. […] The ANCOVA model provides an estimate of mean final HbA1C after treatment for different genotypes, taking into account clinical and demographic information. […] The SNP genotype was included in the model and the difference in HbA1c was estimated between wildtype homozygous and heterozygous or rare homozygous individuals. SNPs that were associated with differential genotype response were identified by a significant (P<=0.05) difference (in the same direction) in HBA1C response between genotypes in two independent trials. Analysis was performed using contrast estimates with the GLM procedure in SAS v. 8.2 (SAS Institute Inc., Cary, N.C.).
smiles,measurement,setting,value
"N#C[C@@H]1C[C@@H]2C[C@@H]2N1C(=O)[C@@H](N)C12CC3CC(CC(O)(C3)C1)C2 [saxagliptin, (1S,3S,55)-2-[(2S)-2-amino-2-(3-hydroxytricyclo[3.3.1.1^3,7]dec-1-yl)-1-oxoethyl]-2-azabicyclo[3.1.0]hexane-3-carbonitrile]",mean change in AUC Glucose levels,"[1]; FIG. 11, GRINL1A position 87,992, reference carriers vs SNP carriers",higher reduction in AUC Glucose levels
same,mean change in AUC glucose levels following saxagliptin treatment,[1]; GRINL1A variant SNP carriers,little change in the AUC glucose levels
same,mean change in AUC glucose levels following saxagliptin treatment,[1]; those homozygous for the GRINL1A reference allele,significant reduction in the AUC glucose levels
same,mean change in fasting glucose levels,"[2]; FIG. 10, GRINL1A position 87,992, reference carriers vs SNP carriers",higher reduction in mean fasting glucose levels
same,mean change in fasting glucose levels following saxagliptin treatment,"[2]; subjects homozygous for the reference allele (T/T) at position 87,992 of SEQ ID NO: 1 (GRINL1A), compared to carriers of the variant allele",significant reduction in the mean fasting glucose levels
same,mean change in fasting glucose levels following saxagliptin treatment,"[2]; variant SNP carriers (C/T or C/C) at position 87,992 of SEQ ID NO: 1 (GRINL1A), compared with matched placebo controls",little change in the fasting glucose levels
same,mean change in HbA1c levels,"[3]; FIG. 9, GRINL1A position 87,992, reference carriers vs SNP variant carriers",higher reduction in mean glycosylated hemoglobin
same,mean change in HbA1c levels,"[3]; FIG. 12, HSD11B1 position 34,403, reference carriers vs SNP carriers",higher reduction in mean glycosylated hemoglobin
same,mean change in HbA1c levels,"[3]; FIG. 13, CHST10 position 24,707, reference carriers vs SNP carriers",higher reduction in mean glycosylated hemoglobin
same,mean change in HbA1c levels,"[3]; FIG. 14, CHST10 position 34,078, reference carriers vs SNP carriers",higher reduction in mean glycosylated hemoglobin
same,mean change in HbA1c levels,"[3]; FIG. 15, CHST10 position 35,799, reference carriers vs SNP carriers",higher reduction in mean glycosylated hemoglobin
same,mean change in HbA1c levels,"[3]; FIG. 16, CHST10 position 38,709, reference carriers vs SNP carriers",higher reduction in mean glycosylated hemoglobin
same,mean change in HbA1c levels,"[3]; FIG. 17, CHST10 position 38,947, reference carriers vs SNP carriers",higher reduction in mean glycosylated hemoglobin
same,mean change in HbA1c levels,"[3]; FIG. 18, CHST10 position 41,180, reference carriers vs SNP carriers",higher reduction in mean glycosylated hemoglobin
same,mean change in HbA1c levels following saxagliptin treatment,"[3]; Trial A and Trial B, variant SNP carriers at positions 24,707, 34,078, 35,799, 38,709, 38,947 or 41,180 of SEQ ID NO: 5 (CHST10), compared with reference allele homozygotes",little change in HbA1c levels
same,mean HbA1C in response to therapy,"[3]; homozygous reference allele (T/T) vs heterozygous (T/C) individuals at position 26,472 of SEQ ID NO: 63 or 64 (TEKT5), both trials",lower mean HbA1C in response to therapy than heterozygous individuals
same,mean change in HbA1c levels following saxagliptin treatment,"[3]; reference allele homozygotes at position 34,403 of SEQ ID NO: 3 or 4 (HSD11B1), compared to carriers of the variant allele",greaterreduction in mean HbA1c levels
same,mean change in HbA1c levels following saxagliptin treatment,"[3]; subjects homozygous for the reference allele (T/T) at position 87,992 of SEQ ID NO: 1 or 2 (GRINL1A)",significant reduction in mean HbA1c levels
same,mean change in HbA1c levels following saxagliptin treatment,"[3]; variant SNP carriers (C/T or C/C) at position 87,992 of SEQ ID NO: 1 or 2 (GRINL1A)",little change in HbA1c levels
same,mean change in HbA1c levels following saxagliptin treatment,"[3]; variant SNP carriers at position 34,403 of SEQ ID NO: 3 or 4 (HSD11B1)",little change in HbA1c levels
